Experimental data published in patent publication US8471005B2 (Cephalon, Inc., priority 2008, dated 2013).
Like-named read-outs stand apart in the source and are kept apart here.

Key:
ALK = target: T1, ALK (Homo sapiens, UniProt Q9UM73); assay: ALK Kinase Assay (ELISA/TRF, PLC-γ substrate); format: biochemical; details: read-out: ALK Potency
T1 construct: host or cells: baculovirus expression system
How it was run: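 Wells were coated with 10 μg/mL phospholipase C-γ substrate in TBS, and the reaction was started by adding 30 ng/ml ALK enzyme and run at 37° C for 15 minutes. Phosphorylated product was detected with Eu-N1-labeled PT66 antibody, and IC50 values came from sigmoidal variable-slope fits of percent inhibition against log concentration.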

JAK2 = target: T2, JAK2 (Homo sapiens, UniProt O60674); assay: Recombinant Human JAK2 Kinase Assay (TRF); format: biochemical; details: read-out: JAK2 Potency
T2 construct: host or cells: baculovirus expression system
T2 sequence (O60674 whole entry): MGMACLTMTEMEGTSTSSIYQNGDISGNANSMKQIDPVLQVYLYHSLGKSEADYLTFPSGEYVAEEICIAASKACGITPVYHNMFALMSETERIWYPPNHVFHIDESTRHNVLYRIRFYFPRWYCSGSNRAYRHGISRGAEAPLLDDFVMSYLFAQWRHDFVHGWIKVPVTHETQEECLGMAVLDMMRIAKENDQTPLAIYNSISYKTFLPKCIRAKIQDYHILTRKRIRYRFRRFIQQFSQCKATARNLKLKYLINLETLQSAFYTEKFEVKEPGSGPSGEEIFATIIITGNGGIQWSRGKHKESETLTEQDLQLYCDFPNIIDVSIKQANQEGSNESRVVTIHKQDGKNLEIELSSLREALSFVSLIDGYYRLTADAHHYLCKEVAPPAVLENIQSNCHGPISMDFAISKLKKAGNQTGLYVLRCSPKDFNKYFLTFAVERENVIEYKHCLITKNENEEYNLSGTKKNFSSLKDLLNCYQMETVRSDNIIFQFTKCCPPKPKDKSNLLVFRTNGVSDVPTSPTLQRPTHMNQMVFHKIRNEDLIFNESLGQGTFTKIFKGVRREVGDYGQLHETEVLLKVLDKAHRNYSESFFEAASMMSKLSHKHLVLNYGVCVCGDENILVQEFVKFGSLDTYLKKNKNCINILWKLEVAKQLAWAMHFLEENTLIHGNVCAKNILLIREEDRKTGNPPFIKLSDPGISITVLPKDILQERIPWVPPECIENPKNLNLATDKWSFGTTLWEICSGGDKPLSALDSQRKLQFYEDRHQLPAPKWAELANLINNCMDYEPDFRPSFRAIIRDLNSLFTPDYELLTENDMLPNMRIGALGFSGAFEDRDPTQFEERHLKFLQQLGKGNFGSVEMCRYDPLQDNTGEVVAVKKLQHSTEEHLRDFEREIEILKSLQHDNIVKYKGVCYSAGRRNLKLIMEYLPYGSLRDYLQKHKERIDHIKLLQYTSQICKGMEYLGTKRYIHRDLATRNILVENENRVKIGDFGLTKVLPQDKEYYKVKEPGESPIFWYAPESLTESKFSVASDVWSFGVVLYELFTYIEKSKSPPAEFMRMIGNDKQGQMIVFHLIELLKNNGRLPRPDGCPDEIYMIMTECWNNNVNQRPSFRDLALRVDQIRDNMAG
How it was run: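 TRF read-out: Eu-N1 PY100 anti-phosphotyrosine antibody detects product. Enzyme is baculovirus-expressed JAK2 at 15 ng/ml; substrate is a biotinyl 15-mer peptide bound to Neutravidin-coated wells. Buffer 20 mM HEPES pH 7.2, 0.2 μM ATP, 1 mM MnCl2, 0.1% BSA, 2.5% DMSO final; 20 min, RT.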

[1] = ALK kinase inhibition, 1 μM ATP
[2] = JAK2 kinase inhibition, 0.2 μM ATP

T1 sequence (Q9UM73 19-1620): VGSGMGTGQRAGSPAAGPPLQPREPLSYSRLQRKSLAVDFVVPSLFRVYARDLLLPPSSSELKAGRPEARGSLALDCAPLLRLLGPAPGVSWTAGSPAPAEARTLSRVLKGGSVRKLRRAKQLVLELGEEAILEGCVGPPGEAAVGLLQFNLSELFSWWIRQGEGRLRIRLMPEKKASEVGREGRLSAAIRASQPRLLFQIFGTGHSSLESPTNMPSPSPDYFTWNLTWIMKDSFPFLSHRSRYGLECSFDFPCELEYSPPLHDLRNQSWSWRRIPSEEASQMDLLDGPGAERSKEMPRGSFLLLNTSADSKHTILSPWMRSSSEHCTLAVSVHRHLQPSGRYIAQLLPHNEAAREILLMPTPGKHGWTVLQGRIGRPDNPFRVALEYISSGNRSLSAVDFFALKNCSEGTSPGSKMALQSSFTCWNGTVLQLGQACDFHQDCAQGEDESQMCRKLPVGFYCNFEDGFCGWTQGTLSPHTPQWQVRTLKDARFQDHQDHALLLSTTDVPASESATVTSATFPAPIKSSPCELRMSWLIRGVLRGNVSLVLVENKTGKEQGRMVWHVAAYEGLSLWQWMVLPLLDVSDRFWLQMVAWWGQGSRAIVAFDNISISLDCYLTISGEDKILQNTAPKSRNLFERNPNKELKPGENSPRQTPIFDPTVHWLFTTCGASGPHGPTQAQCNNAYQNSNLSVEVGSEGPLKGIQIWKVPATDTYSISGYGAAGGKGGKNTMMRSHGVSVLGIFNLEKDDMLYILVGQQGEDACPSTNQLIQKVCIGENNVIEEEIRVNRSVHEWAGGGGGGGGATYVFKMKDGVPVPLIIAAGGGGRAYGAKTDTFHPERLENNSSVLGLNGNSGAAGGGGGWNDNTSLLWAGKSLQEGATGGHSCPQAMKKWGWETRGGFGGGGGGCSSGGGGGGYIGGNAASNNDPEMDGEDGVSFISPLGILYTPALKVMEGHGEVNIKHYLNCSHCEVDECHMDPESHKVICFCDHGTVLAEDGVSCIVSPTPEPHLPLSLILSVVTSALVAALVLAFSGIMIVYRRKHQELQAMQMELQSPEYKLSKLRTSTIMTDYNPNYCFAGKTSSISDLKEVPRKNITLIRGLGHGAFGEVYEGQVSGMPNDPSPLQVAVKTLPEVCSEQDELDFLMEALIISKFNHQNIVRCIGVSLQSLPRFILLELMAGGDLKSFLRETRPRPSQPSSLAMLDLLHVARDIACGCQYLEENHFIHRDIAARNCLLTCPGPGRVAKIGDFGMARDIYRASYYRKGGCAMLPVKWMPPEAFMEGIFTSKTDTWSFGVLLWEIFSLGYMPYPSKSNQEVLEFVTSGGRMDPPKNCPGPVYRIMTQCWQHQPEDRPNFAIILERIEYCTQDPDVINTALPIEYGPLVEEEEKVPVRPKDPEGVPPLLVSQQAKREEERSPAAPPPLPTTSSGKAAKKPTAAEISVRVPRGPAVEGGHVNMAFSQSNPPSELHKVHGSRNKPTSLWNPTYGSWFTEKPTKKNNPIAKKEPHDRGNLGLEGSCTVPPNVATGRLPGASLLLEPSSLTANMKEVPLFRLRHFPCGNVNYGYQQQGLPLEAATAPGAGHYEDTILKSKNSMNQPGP

Compound: COc1cc([C@@H]2CCN(C(=O)OC(C)(C)C)C[C@@H]2O)ccc1Nc1ncc2ccc(-c3ccccc3OC)n2n1 (racemic) [Example 834, (±)-(3R,4S)-3-Hydroxy-4-{3-methoxy-4-[7-(2-methoxy-phenyl)-pyrrolo[2,1-f][1,2,4]triazin-2-ylamino]-phenyl}-piperidine-1-carboxylic acid tert-butyl ester]
- IC50 (ALK; [1]): 100 to 1000 nM
- IC50 (JAK2; [2]): 100 to 1000 nM

Compound: c1ccc(-c2ccc3cnc(NCCCN4CCOCC4)nn23)cc1 [Example 29, (3-Morpholin-4-yl-propyl)-(7-phenyl-pyrrolo[2,1-f][1,2,4]triazin-2-yl)-amine]
- IC50 (ALK; ALK Kinase Inhibition): > 10000 nM
- IC50 (JAK2; JAK2 Kinase Inhibition): 1000 to 10000 nM

Compound: COc1cc(C2CCN(C3COC3)CC2)ccc1Nc1ncc2ccc(-c3ccccc3OC)n2n1 [Example 827, [2-Methoxy-4-(1-oxetan-3-yl-piperidin-4-yl)-phenyl]-[7-(2-methoxy-phenyl)-pyrrolo[2,1-f][1,2,4]triazin-2-yl]-amine]
- IC50 (ALK; [1]): < 100 nM
- IC50 (JAK2; [2]): 100 to 1000 nM

Compound: Cn1ncc2cc(Nc3ncc4ccc(-c5cccc(S(=O)(=O)NC(C)(C)C)c5)n4n3)ccc21 [Example 1316, N-tert-Butyl-3-[2-(1-methyl-1H-indazol-5-ylamino)-pyrrolo[2,1-f][1,2,4]triazin-7-yl]-benzenesulfonamide]
- IC50 (ALK; [1]): 100 to 1000 nM
- IC50 (JAK2; [2]): < 100 nM

Compound: CC(C)(C)OC(=O)c1ccc(-c2ccc3cnc(Nc4ccc(N5CCOCC5)cc4)nn23)cc1 [Example 44, 4-[2-(4-Morpholin-4-yl-phenylamino)-pyrrolo[2,1-f][1,2,4]triazin-7-yl]-benzoic acid tert-butyl ester]
- IC50 (ALK; ALK Kinase Inhibition): > 10000 nM
- IC50 (JAK2; JAK2 Kinase Inhibition): < 100 nM

Compound: COc1ccccc1-c1ccc2cnc(Nc3ccc(C4CCN(C(=O)C5CCN(C)CC5)CC4)cc3)nn12 [Example 500, (4-{4-[7-(2-Methoxy-phenyl)-pyrrolo[2,1-f][1,2,4]triazin-2-ylamino]-phenyl}-piperidin-1-yl)-(1-methyl-piperidin-4-yl)-methanone]
- IC50 (ALK; [1]): < 100 nM
- IC50 (JAK2; [2]): < 100 nM

Compound: CCN1CCCC(CC)(c2ccc(Nc3ncc4ccc(-c5ccccc5N(C)S(C)(=O)=O)n4n3)cc2)C1 (racemic) [Example 778, (±)-N-(2-{2-[4-(1,3-Diethyl-piperidin-3-yl)-phenylamino]-pyrrolo[2,1-f][1,2,4]triazin-7-yl}-phenyl)-N-methyl-methanesulfonamide]
- IC50 (ALK; [1]): < 100 nM
- IC50 (JAK2; [2]): < 100 nM

Compound: COc1cc(CCN2CCN(C)CC2)ccc1Nc1ncc2ccc(-c3ccccc3N(C)S(C)(=O)=O)n2n1 [Example 491, N-[2-(2-{2-Methoxy-4-[2-(4-methyl-piperazin-1-yl)-ethyl]-phenylamino}-pyrrolo[2,1-f][1,2,4]triazin-7-yl)-phenyl]-N-methyl-methanesulfonamide]
- IC50 (ALK; [1]): < 100 nM
- IC50 (JAK2; [2]): 100 to 1000 nM

Compound: CN(c1ccccc1-c1ccc2cnc(Nc3ccc4ncn(CCN5CCOCC5)c4c3)nn12)S(C)(=O)=O [Example 1336, N-Methyl-N-(2-{2-[3-(2-morpholin-4-yl-ethyl)-3H-benzimidazol-5-ylamino]-pyrrolo[2,1-f][1,2,4]triazin-7-yl}-phenyl)-methanesulfonamide]
- IC50 (ALK; [1]): 1000 to 10000 nM
- IC50 (JAK2; [2]): < 100 nM

Compound: COc1ccccc1-c1ccc2cnc(Nc3ccc(N4CCOCC4)cn3)nn12 [Example 1202, [7-(2-Methoxy-phenyl)-pyrrolo[2,1-f][1,2,4]triazin-2-yl]-(5-morpholin-4-yl-pyridin-2-yl)-amine]
- IC50 (ALK; [1]): 1000 to 10000 nM
- IC50 (JAK2; [2]): < 100 nM

Compound: C[C@H](O)CN1CCC(c2ccc(Nc3ncc4ccc(-c5cccc(N(C)S(C)(=O)=O)c5)n4n3)cc2)CC1 [Example 960, N-[3-(2-{4-[1-((S)-2-Hydroxy-propyl)-piperidin-4-yl]-phenylamino}-pyrrolo[2,1-f][1,2,4]triazin-7-yl)-phenyl]-N-methyl-methanesulfonamide]
- IC50 (ALK; [1]): 100 to 1000 nM
- IC50 (JAK2; [2]): < 100 nM

Compound: CS(=O)(=O)c1cccc(-c2ccc3cnc(Nc4ccc(C5CCN(CC(N)=O)CC5)cc4)nn23)c1 [Example 1434, 2-(4-{4-[7-(3-Methanesulfonyl-phenyl)-pyrrolo[2,1-f][1,2,4]triazin-2-ylamino]-phenyl}-piperidin-1-yl)-acetamide]
- IC50 (ALK; ALK Kinase Inhibition): 100 to 1000 nM
- IC50 (JAK2; JAK2 Kinase Inhibition): < 100 nM

Compound: COc1cc(C2CCN(C[C@H](Oc3ncc4ccc(-c5ccccc5OC)n4n3)C(F)(F)F)CC2)ccc1N [Example 786, 2-Methoxy-4-(1-{(S)-3,3,3-trifluoro-2-[7-(2-methoxy-phenyl)-pyrrolo[2,1-f][1,2,4]triazin-2-yloxy]-propyl}-piperidin-4-yl)-phenylamine]
- IC50 (ALK; [1]): > 10000 nM
- IC50 (JAK2; [2]): > 10000 nM

Compound: N#CCCc1cccc(-c2ccc3cnc(Nc4ccc(N5CCN(CCO)CC5)cc4)nn23)c1 [Example 1151, 3-[3-(2-{4-[4-(2-Hydroxy-ethyl)-piperazin-1-yl]-phenylamino}-pyrrolo[2,1-f][1,2,4]triazin-7-yl)-phenyl]-propionitrile]
- IC50 (ALK; [1]): < 100 nM
- IC50 (JAK2; [2]): < 100 nM

Compound: CN1CCN(Cc2nc3ccc(Nc4ncc5ccc(-c6cccc(S(=O)(=O)NC(C)(C)C)c6)n5n4)cc3[nH]2)CC1 [Example 1524, N-tert-Butyl-3-{2-[2-(4-methyl-piperazin-1-ylmethyl)-3H-benzimidazol-5-ylamino]-pyrrolo[2,1-f][1,2,4]triazin-7-yl}-benzenesulfonamide]
- IC50 (ALK; ALK Kinase Inhibition): 100 to 1000 nM
- IC50 (JAK2; JAK2 Kinase Inhibition): < 100 nM

Compound: COc1ccc(CN2CCN(C)CC2)cc1Nc1ncc2ccc(-c3ccccc3N(C)S(C)(=O)=O)n2n1 [Example 497, N-(2-{2-[2-Methoxy-5-(4-methyl-piperazin-1-ylmethyl)-phenylamino]-pyrrolo[2,1-f][1,2,4]triazin-7-yl}-phenyl)-N-methyl-methanesulfonamide]
- IC50 (ALK; [1]): 1000 to 10000 nM
- IC50 (JAK2; [2]): 1000 to 10000 nM

Compound: COc1ccccc1-c1ccc2cnc(Nc3cccc(OCCN4CCOCC4)c3)nn12 [Example 1003, [7-(2-Methoxy-phenyl)-pyrrolo[2,1-f][1,2,4]triazin-2-yl]-[3-(2-morpholin-4-yl-ethoxy)-phenyl]-amine]
- IC50 (ALK; [1]): 100 to 1000 nM
- IC50 (JAK2; [2]): < 100 nM

Compound: COc1cc(N2CCC(C(=O)N3CCN(C)CC3)CC2)ccc1Nc1ncc2ccc(-c3ccccc3N(C)S(C)(=O)=O)n2n1 [Example 459, N-[2-(2-{2-Methoxy-4-[4-(4-methyl-piperazine-1-carbonyl)-piperidin1-yl]-phenylamino}-pyrrolo[2,1-f][1,2,4]triazin-7-yl)-phenyl]-N-methyl-methanesulfonamide]
- IC50 (ALK; ALK Kinase Inhibition): < 100 nM
- IC50 (JAK2; JAK2 Kinase Inhibition): 100 to 1000 nM

Compound: CC(C)(C)NS(=O)(=O)c1cccc(-c2ccc3cnc(Nc4ccc5ncn(CCN6CCOCC6)c5c4)nn23)c1 [Example 1326, N-tert-Butyl-3-{2-[3-(2-morpholin-4-yl-ethyl)-3H-benzimidazol-5-ylamino]-pyrrolo[2,1-f][1,2,4]triazin-7-yl}-benzenesulfonamide]
- IC50 (ALK; [1]): 100 to 1000 nM
- IC50 (JAK2; [2]): < 100 nM

Compound: Cc1cc(N2CCN(C)CC2)ccc1Nc1ncc2ccc(-c3cccc(Cl)c3)n2n1 [Example 68, [7-(3-Chloro-phenyl)-pyrrolo[2,1-f][1,2,4]triazin-2-yl]-[2-methyl-4-(4-methyl-piperazin-1-yl)-phenyl]-amine]
- IC50 (ALK; ALK Kinase Inhibition): < 100 nM
- IC50 (JAK2; JAK2 Kinase Inhibition): < 100 nM

Compound: COc1cc(Nc2ncc3ccc(-c4ccc(S(C)(=O)=O)cc4)n3n2)cc(OC)c1OC [Example 162, [7-(4-Methanesulfonyl-phenyl)-pyrrolo[2,1-f][1,2,4]triazin-2-yl]-(3,4,5-trimethoxy-phenyl)-amine]
- IC50 (ALK; ALK Kinase Inhibition): 100 to 1000 nM
- IC50 (JAK2; JAK2 Kinase Inhibition): < 100 nM

Compound: c1cc2c(c(-c3ccc4cnc(Nc5cnn(C6CCNCC6)c5)nn34)c1)OCC2 [Example 715, [7-(2,3-Dihydrobenzofuran-7-yl)pyrrolo[2,1-f][1,2,4]triazin-2-yl]-(1-piperidin-4-yl-1H-pyrazol-4-yl)amine]
- IC50 (ALK; [1]): 100 to 1000 nM
- IC50 (JAK2; [2]): < 100 nM

Compound: CN1CCN(CC2CCCN(c3ccc(Nc4ncc5ccc(-c6ccccc6N(C)S(C)(=O)=O)n5n4)cc3)C2)CC1 (stereo not drawn) [Example 455, N-Methyl-N-[2-(2-{4-[3-(4-methyl-piperazin-1-ylmethyl)-piperidin-1-yl]-phenylamino}-pyrrolo[2,1-f][1,2,4]triazin-7-yl)-phenyl]-methanesulfonamide]
- IC50 (ALK; ALK Kinase Inhibition): < 100 nM
- IC50 (JAK2; JAK2 Kinase Inhibition): < 100 nM

Compound: COc1cc(N2CCC(N3CCOCC3)CC2)ccc1Nc1ncc2ccc(-c3c(F)cccc3OC)n2n1 [Example 509, [7-(2-Fluoro-6-methoxy-phenyl)-pyrrolo[2,1-f][1,2,4]triazin-2-yl]-[2-methoxy-4-(4-morpholin-4-yl-piperidin-1-yl)-phenyl]-amine]
- IC50 (ALK; [1]): < 100 nM
- IC50 (JAK2; [2]): < 100 nM

Compound: COc1ccccc1-c1ccc2cnc(Nc3ccc4c(cnn4CCN4CCOCC4)c3)nn12 [Example 1346, [7-(2-Methoxy-phenyl)-pyrrolo[2,1-f][1,2,4]triazin-2-yl]-[1-(2-morpholin-4-yl-ethyl)-1H-indazol-5-yl]-amine]
- IC50 (ALK; [1]): 100 to 1000 nM
- IC50 (JAK2; [2]): < 100 nM

Compound: CS(=O)(=O)c1cccc(-c2ccc3cnc(Nc4ccc(-c5cccnc5)cc4)nn23)c1 [Example 1087, [7-(3-Methanesulfonyl-phenyl)-pyrrolo[2,1-f][1,2,4]triazin-2-yl]-(4-pyridin-3-yl-phenyl)-amine]
- IC50 (ALK; [1]): 1000 to 10000 nM
- IC50 (JAK2; [2]): < 100 nM

Compound: COCCN1CCc2ccc(Nc3ncc4ccc(-c5ccccc5S(=O)(=O)N(C)C)n4n3)cc2CC1 [Example 31, 2-{2-[3-(2-Methoxy-ethyl)-2,3,4,5-tetrahydro-1H-benzo[d]azepin-7-ylamino]-pyrrolo[2,1-f][1,2,4]triazin-7-yl}-N,N-dimethyl-benzenesulfonamide]
- IC50 (ALK; ALK Kinase Inhibition): 100 to 1000 nM
- IC50 (JAK2; JAK2 Kinase Inhibition): < 100 nM
